ChEMBL document CHEMBL1201861, “Genomics of Drug Sensitity in Cancer screening data, Wellcome Trust Sanger Institute”

Tests used:
Assay in all cases: cells
Settings in all cases: Homo sapiens
TE-12 = assay type: functional, cell-based;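 also: growth inhibition of TE-12 cells, read out by a cell viability assay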
Description: SANGER: Inhibition of human TE-12 cell growth in a cell viability assay.

SNB-75 = assay type: functional, cell-based;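 also: cell viability assay measuring growth inhibition of human SNB-75 cells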
Description: SANGER: Inhibition of human SNB75 cell growth in a cell viability assay.

OCI-AML2 = assay type: functional, cell-based;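 also: growth inhibition of OCI-AML2 cells, read out with a cell viability assay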
Description: SANGER: Inhibition of human OCI-AML2 cell growth in a cell viability assay.

SNU1 = assay type: functional, cell-based;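 also: growth inhibition of human NCI-SNU-1 cells, measured with a cell viability assay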
Description: SANGER: Inhibition of human NCI-SNU-1 cell growth in a cell viability assay.

MHH-PREB-1 = assay type: functional, cell-based;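 also: cell viability assay measuring inhibition of proliferation of human MHH-PREB-1 cells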
Description: SANGER: Inhibition of human MHH-PREB-1 cell growth in a cell viability assay.

MS-1 = assay type: functional, cell-based
Description: SANGER: Inhibition of human MS-1 cell growth in a cell viability assay.

HuTu80 = assay type: functional, cell-based, HUTU-80;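 also: growth inhibition of HuTu80 human cells, determined with a cell viability readout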
Description: SANGER: Inhibition of human HUTU-80 cell growth in a cell viability assay.

LS-1034 = assay type: functional, cell-based
Description: SANGER: Inhibition of human LS-1034 cell growth in a cell viability assay.

697 = assay type: functional, cell-based
Description: SANGER: Inhibition of human 697 cell growth in a cell viability assay.

RPMI-8866 = assay type: functional, cell-based
Description: SANGER: Inhibition of human RPMI-8866 cell growth in a cell viability assay.

OCUB-M = assay type: functional, cell-based;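 also: growth inhibition of the cancer cell line, read out through a cell viability assay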
Description: SANGER: Inhibition of human OCUB-M cell growth in a cell viability assay.

MV4-11 = assay type: functional, cell-based, MV-4-11;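 also: cell viability readout measuring growth inhibition of human MV-4-11 cells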
Description: SANGER: Inhibition of human MV-4-11 cell growth in a cell viability assay.

EOL1 = assay type: functional, cell-based;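 also: growth inhibition of EoL-1 cells, read out by a cell viability assay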
Description: SANGER: Inhibition of human EoL-1-cell cell growth in a cell viability assay.

no-11 = assay type: functional, cell-based;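 also: growth inhibition of human NO-11 cells, read out with a cell viability assay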
Description: SANGER: Inhibition of human no-11 cell growth in a cell viability assay.

SK-LMS-1 = assay type: functional, cell-based;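 also: growth inhibition of human SK-LMS-1 cells, read out with a cell viability assay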
Description: SANGER: Inhibition of human SK-LMS-1 cell growth in a cell viability assay.

MDA-MB-157 = assay type: functional, cell-based
Description: SANGER: Inhibition of human MDA-MB-157 cell growth in a cell viability assay.

RCC10RGB = assay type: functional, cell-based;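 also: growth inhibition of human RCC10RGB cells, read out by a cell viability assay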
Description: SANGER: Inhibition of human RCC10RGB cell growth in a cell viability assay.

HC-1 = assay type: functional, cell-based;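 also: growth inhibition of HC-1 cells measured by a cell viability assay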
Description: SANGER: Inhibition of human HC-1 cell growth in a cell viability assay.

A704 = assay type: functional, cell-based;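 also: growth inhibition of human A704 cells, read out with a cell viability assay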
Description: SANGER: Inhibition of human A704 cell growth in a cell viability assay.

NCI-H1299 = assay type: functional, cell-based;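 also: growth inhibition of human NCI-H1299 cells, read out by a cell viability assay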
Description: SANGER: Inhibition of human NCI-H1299 cell growth in a cell viability assay.

JAR = assay type: functional, cell-based;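 also: growth inhibition of human JAR cells determined with a cell viability assay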
Description: SANGER: Inhibition of human JAR cell growth in a cell viability assay.

UMC-11 = assay type: functional, cell-based;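 also: growth inhibition of UMC-11 cells, read out with a cell viability assay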
Description: SANGER: Inhibition of human UMC-11 cell growth in a cell viability assay.

KYSE-450 = assay type: functional, cell-based;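 also: cell growth inhibition measured by a viability assay in human KYSE-450 cells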
Description: SANGER: Inhibition of human KYSE-450 cell growth in a cell viability assay.

ES6 = assay type: functional, cell-based;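 also: growth inhibition of human ES6 cells, read out with a cell viability assay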
Description: SANGER: Inhibition of human ES6 cell growth in a cell viability assay.

C8166 = assay type: functional, cell-based;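 also: growth inhibition of human C8166 cells measured by a cell viability assay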
Description: SANGER: Inhibition of human C8166 cell growth in a cell viability assay.

OVCAR-8 = assay type: functional, cell-based;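 also: growth inhibition of human OVCAR-8 cells, read out by a cell viability assay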
Description: SANGER: Inhibition of human OVCAR-8 cell growth in a cell viability assay.

NCI-H1155 = assay type: functional, cell-based;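 also: cell growth inhibition measured by a viability assay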
Description: SANGER: Inhibition of human NCI-H1155 cell growth in a cell viability assay.

ML-2 = assay type: functional, cell-based;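 also: growth inhibition of ML-2 cells, measured with a cell viability readout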
Description: SANGER: Inhibition of human ML-2 cell growth in a cell viability assay.

KINGS-1 = assay type: functional, cell-based;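 also: cell viability assay measuring suppression of KINGS-1 cell growth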
Description: SANGER: Inhibition of human KINGS-1 cell growth in a cell viability assay.

COLO-684 = assay type: functional, cell-based
Description: SANGER: Inhibition of human COLO-684 cell growth in a cell viability assay.

AM-38 = assay type: functional, cell-based;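 also: growth inhibition of AM-38 cells of human origin, read out by a cell viability assay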
Description: SANGER: Inhibition of human AM-38 cell growth in a cell viability assay.

NCI-H2052 = assay type: functional, cell-based;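 also: growth inhibition of NCI-H2052 cells, read out with a cell viability assay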
Description: SANGER: Inhibition of human NCI-H2052 cell growth in a cell viability assay.

QIMR-WIL = assay type: functional, cell-based;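 also: growth inhibition of QIMR-WIL cells, read out with a cell viability assay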
Description: SANGER: Inhibition of human QIMR-WIL cell growth in a cell viability assay.

RS4-11 = assay type: functional, cell-based;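 also: growth inhibition of RS4-11 cells, read out by a cell viability assay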
Description: SANGER: Inhibition of human RS4-11 cell growth in a cell viability assay.

SW982 = assay type: functional, cell-based;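 also: growth inhibition of SW982 cells, read out with a cell viability assay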
Description: SANGER: Inhibition of human SW982 cell growth in a cell viability assay.

UACC-893 = assay type: functional, cell-based
Description: SANGER: Inhibition of human UACC-893 cell growth in a cell viability assay.

IST-SL1 = assay type: functional, cell-based;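 also: growth inhibition of human IST-SL1 cells, read out with a cell viability assay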
Description: SANGER: Inhibition of human IST-SL1 cell growth in a cell viability assay.

Calu-6 = assay type: functional, cell-based;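 also: growth of human Calu-6 cells, read out by a cell viability assay, IC50 marking inhibition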
Description: SANGER: Inhibition of human Calu-6 cell growth in a cell viability assay.

SF-126 = assay type: functional, cell-based;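 also: growth inhibition of human SF126 cells, read out with a cell viability assay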
Description: SANGER: Inhibition of human SF126 cell growth in a cell viability assay.

NCI-H1770 = assay type: functional, cell-based;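 also: growth inhibition of NCI-H1770 cells determined with a viability readout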
Description: SANGER: Inhibition of human NCI-H1770 cell growth in a cell viability assay.

LB2518-MEL = assay type: functional, cell-based;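 also: growth inhibition of human LB2518-MEL cells, measured with a cell viability assay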
Description: SANGER: Inhibition of human LB2518-MEL cell growth in a cell viability assay.

SW 962 = assay type: functional, cell-based;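 also: growth inhibition of human SW962 cells, read out by a cell viability assay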
Description: SANGER: Inhibition of human SW962 cell growth in a cell viability assay.

JEG-3 = assay type: functional, cell-based;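 also: growth inhibition of human JEG-3 cells, read out with a cell viability assay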
Description: SANGER: Inhibition of human JEG-3 cell growth in a cell viability assay.

SF-268 = assay type: functional, cell-based;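 also: growth inhibition of SF-268 cells determined with a cell viability assay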
Description: SANGER: Inhibition of human SF268 cell growth in a cell viability assay.

MDA-MB-453 = assay type: functional, cell-based
Description: SANGER: Inhibition of human MDA-MB-453 cell growth in a cell viability assay.

KM12 = assay type: functional, cell-based;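 also: KM12 cell growth inhibition, read out with a cell viability assay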
Description: SANGER: Inhibition of human KM12 cell growth in a cell viability assay.

GB-1 = assay type: functional, cell-based;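 also: growth of GB-1 cells judged by a viability assay, IC50 marks the concentration inhibiting growth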
Description: SANGER: Inhibition of human GB-1 cell growth in a cell viability assay.

NCI-H1838 = assay type: functional, cell-based;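 also: growth inhibition of NCI-H1838 cells, determined with a cell viability readout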
Description: SANGER: Inhibition of human NCI-H1838 cell growth in a cell viability assay.

A498 = assay type: functional, cell-based;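 also: growth inhibition of human A498 cells, read out with a cell viability assay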
Description: SANGER: Inhibition of human A498 cell growth in a cell viability assay.

NCI-H1355 = assay type: functional, cell-based;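 also: growth inhibition of human NCI-H1355 cells, read out by a cell viability assay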
Description: SANGER: Inhibition of human NCI-H1355 cell growth in a cell viability assay.

LB831-BLC = assay type: functional, cell-based;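 also: growth inhibition of LB831-BLC cells, read out with a cell viability assay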
Description: SANGER: Inhibition of human LB831-BLC cell growth in a cell viability assay.

HD-MY-Z = assay type: functional, cell-based;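 also: growth inhibition of HD-MY-Z cells, read out with a cell viability assay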
Description: SANGER: Inhibition of human HD-MY-Z cell growth in a cell viability assay.

KM-H2 = assay type: functional, cell-based;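 also: growth inhibition of KM-H2 cells, read out by a cell viability assay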
Description: SANGER: Inhibition of human KM-H2 cell growth in a cell viability assay.

NB13 = assay type: functional, cell-based;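 also: cell viability readout measuring growth inhibition of human NB13 cells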
Description: SANGER: Inhibition of human NB13 cell growth in a cell viability assay.

HH = assay type: functional, cell-based
Description: SANGER: Inhibition of human HH cell growth in a cell viability assay.

ES1 = assay type: functional, cell-based;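 also: growth inhibition of ES1 cells, read out with a cell viability assay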
Description: SANGER: Inhibition of human ES1 cell growth in a cell viability assay.

DB = assay type: functional, cell-based
Description: SANGER: Inhibition of human DB cell growth in a cell viability assay.

CP66-MEL = assay type: functional, cell-based;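 also: growth inhibition of CP66-MEL cells determined in a cell viability assay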
Description: SANGER: Inhibition of human CP66-MEL cell growth in a cell viability assay.

RPMI-8226 = assay type: functional, cell-based
Description: SANGER: Inhibition of human RPMI-8226 cell growth in a cell viability assay.

GAK = assay type: functional, cell-based;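 also: cell growth inhibition read out by a cell viability assay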
Description: SANGER: Inhibition of human GAK cell growth in a cell viability assay.

LAN-6 = assay type: functional, cell-based
Description: SANGER: Inhibition of human LAN-6 cell growth in a cell viability assay.

MN-60 = assay type: functional, cell-based
Description: SANGER: Inhibition of human MN-60 cell growth in a cell viability assay.

NCI-H1563 = assay type: functional, cell-based
Description: SANGER: Inhibition of human NCI-H1563 cell growth in a cell viability assay.

MKN-45 = assay type: functional, cell-based
Description: SANGER: Inhibition of human MKN45 cell growth in a cell viability assay.

Cn1cc(/C=C2\C(=O)Nc3cccnc32)c2ccccc21
IC50 (TE-12): > 2000 nM
IC50 (SNB-75): > 2000 nM
IC50 (OCI-AML2): > 2000 nM
IC50 (SNU1): > 2000 nM
IC50 (MHH-PREB-1): > 2000 nM
IC50 (MS-1): > 2000 nM
IC50 (HuTu80): > 2000 nM
IC50 (LS-1034): > 2000 nM
IC50 697: > 2000 nM
IC50 (RPMI-8866): > 2000 nM
IC50 (OCUB-M): > 2000 nM
IC50 (MV4-11): 295 nM
IC50 (EOL1): > 2000 nM
IC50 (no-11): > 2000 nM
IC50 (SK-LMS-1): > 2000 nM
IC50 (MDA-MB-157): > 2000 nM
IC50 (RCC10RGB): > 2000 nM
IC50 (HC-1): > 2000 nM
IC50 (A704): > 2000 nM
IC50 (NCI-H1299): > 2000 nM
IC50 (JAR): 972 nM
IC50 (UMC-11): > 2000 nM
IC50 (KYSE-450): > 2000 nM
IC50 (ES6): > 2000 nM
IC50 (C8166): > 2000 nM
IC50 (OVCAR-8): > 2000 nM
IC50 (NCI-H1155): > 2000 nM
IC50 (ML-2): > 2000 nM
IC50 (KINGS-1): > 2000 nM
IC50 (COLO-684): > 2000 nM
IC50 (AM-38): > 2000 nM
IC50 (NCI-H2052): > 2000 nM
IC50 (QIMR-WIL): > 2000 nM
IC50 (RS4-11): > 2000 nM
IC50 (SW982): > 2000 nM
IC50 (UACC-893): > 2000 nM
IC50 (IST-SL1): > 2000 nM
IC50 (Calu-6): > 2000 nM
IC50 (SF-126): > 2000 nM
IC50 (NCI-H1770): > 2000 nM
IC50 (LB2518-MEL): > 2000 nM
IC50 (SW 962): > 2000 nM
IC50 (JEG-3): > 2000 nM
IC50 (SF-268): > 2000 nM
IC50 (MDA-MB-453): > 2000 nM
IC50 (KM12): 1940 nM
IC50 (GB-1): > 2000 nM
IC50 (NCI-H1838): > 2000 nM
IC50 (A498): > 2000 nM
IC50 (NCI-H1355): > 2000 nM
IC50 (LB831-BLC): > 2000 nM
IC50 (HD-MY-Z): > 2000 nM
IC50 (KM-H2): > 2000 nM
IC50 (NB13): > 2000 nM
IC50 (HH): > 2000 nM
IC50 (ES1): > 2000 nM
IC50 (DB): > 2000 nM
IC50 (CP66-MEL): > 2000 nM
IC50 (RPMI-8226): > 2000 nM
IC50 (GAK): > 2000 nM
IC50 (LAN-6): > 2000 nM
IC50 (MN-60): > 2000 nM
IC50 (NCI-H1563): > 2000 nM
IC50 (MKN-45): > 2000 nM

CC[C@]1(O)C[C@@H]2CN(CCc3c([nH]c4ccccc34)[C@@](C(=O)OC)(c3cc4c(cc3OC)N(C)[C@H]3[C@@](O)(C(=O)OC)[C@H](OC(C)=O)[C@]5(CC)C=CCN6CC[C@]43[C@@H]65)C2)C1 [VINBLASTINE]
IC50 (TE-12): > 100 nM
IC50 (SNB-75): 11.2 nM
IC50 (OCI-AML2): > 100 nM
IC50 (SNU1): 1.62 nM
IC50 (MHH-PREB-1): 1.49 nM
IC50 (MS-1): 30.8 nM
IC50 (HuTu80): 12.3 nM
IC50 (LS-1034): > 100 nM
IC50 697: 6.23 nM
IC50 (RPMI-8866): 1.97 nM
IC50 (OCUB-M): 7.56 nM
IC50 (MV4-11): 2.81 nM
IC50 (EOL1): 1.26 nM
IC50 (no-11): 38.8 nM
IC50 (SK-LMS-1): 58.6 nM
IC50 (MDA-MB-157): 9.06 nM
IC50 (RCC10RGB): > 100 nM
IC50 (HC-1): 4.21 nM
IC50 (A704): > 100 nM
IC50 (NCI-H1299): 16.4 nM
IC50 (JAR): 0.608 nM
IC50 (UMC-11): 76.2 nM
IC50 (KYSE-450): 9.65 nM
IC50 (ES6): > 100 nM
IC50 (C8166): 27 nM
IC50 (OVCAR-8): 6.55 nM
IC50 (NCI-H1155): 43.7 nM
IC50 (ML-2): 8.65 nM
IC50 (KINGS-1): 9.32 nM
IC50 (COLO-684): 7.67 nM
IC50 (AM-38): 36.9 nM
IC50 (NCI-H2052): 24.6 nM
IC50 (QIMR-WIL): 8.95 nM
IC50 (RS4-11): 4.51 nM
IC50 (SW982): 8.92 nM
IC50 (UACC-893): 98.3 nM
IC50 (IST-SL1): 1.19 nM
IC50 (Calu-6): > 100 nM
IC50 (SF-126): 21.9 nM
IC50 (NCI-H1770): 28.5 nM
IC50 (LB2518-MEL): > 100 nM
IC50 (SW 962): 19.4 nM
IC50 (JEG-3): 12.5 nM
IC50 (SF-268): 16.2 nM
IC50 (MDA-MB-453): 3.29 nM
IC50 (KM12): 14.4 nM
IC50 (GB-1): 39.8 nM
IC50 (NCI-H1838): > 100 nM
IC50 (A498): 5.94 nM
IC50 (NCI-H1355): 19.5 nM
IC50 (LB831-BLC): 21.2 nM
IC50 (HD-MY-Z): 3.33 nM
IC50 (KM-H2): 5.34 nM
IC50 (NB13): 3.27 nM
IC50 (HH): 6.37 nM
IC50 (ES1): 4.71 nM
IC50 (DB): 1.69 nM
IC50 (CP66-MEL): 48.6 nM
IC50 (RPMI-8226): 2.85 nM
IC50 (GAK): > 100 nM
IC50 (LAN-6): 47.7 nM
IC50 (MN-60): 29.4 nM
IC50 (NCI-H1563): 21.5 nM
IC50 (MKN-45): 48.4 nM
